Assay results from the NIST ThermoML archive (doi:10.1021/je8008864).

Experiment: mn = molality of the nth substance listed, in mol/kg
Settings: 101 kPa, Liquid; for viscosity: Rotational; for mass density: Vibrating tube method

CNCCC=C1c2ccccc2CCc2ccccc21.Cl + O
Settings | mass density [kg/m3] | viscosity [mPa·s]
293.15 K, m1 = 0.0075 | 998.486 | 1.035
293.15 K, m1 = 0.01 | 998.545 | 1.035
293.15 K, m1 = 0.0125 | 998.599 | 1.036
293.15 K, m1 = 0.0152 | 998.645 | 1.036
293.15 K, m1 = 0.0175 | 998.668 | 1.037
293.15 K, m1 = 0.02 | 998.705 | 1.037
293.15 K, m1 = 0.025 | 998.721 | 1.038
298.15 K, m1 = 0.0076 | 997.322 | 0.9368
298.15 K, m1 = 0.01 | 997.382 | 0.937
298.15 K, m1 = 0.0125 | 997.428 | 0.9374
298.15 K, m1 = 0.0152 | 997.469 | 0.9376
298.15 K, m1 = 0.0175 | 997.499 | 0.9379
298.15 K, m1 = 0.02 | 997.521 | 0.9382
298.15 K, m1 = 0.025 | 997.545 | 0.9388
303.15 K, m1 = 0.0076 | 995.904 | 0.8338
303.15 K, m1 = 0.01 | 995.959 | 0.8339
303.15 K, m1 = 0.0125 | 996.001 | 0.8342
303.15 K, m1 = 0.0152 | 996.045 | 0.8345
303.15 K, m1 = 0.0175 | 996.065 | 0.8348
303.15 K, m1 = 0.02 | 996.085 | 0.8349
303.15 K, m1 = 0.025 | 996.105 | 0.8356
308.15 K, m1 = 0.0076 | 994.285 | 0.7279
308.15 K, m1 = 0.01 | 994.335 | 0.7281
308.15 K, m1 = 0.0125 | 994.379 | 0.7283
308.15 K, m1 = 0.0152 | 994.409 | 0.7285
308.15 K, m1 = 0.0175 | 994.435 | 0.7286
308.15 K, m1 = 0.02 | 994.455 | 0.7289
308.15 K, m1 = 0.025 | 994.465 | 0.7293
310.15 K, m1 = 0.0076 | 993.565 | 0.6925
310.15 K, m1 = 0.01 | 993.621 | 0.6928
310.15 K, m1 = 0.0125 | 993.659 | 0.6929
310.15 K, m1 = 0.0152 | 993.689 | 0.6931
310.15 K, m1 = 0.0175 | 993.712 | 0.6932
310.15 K, m1 = 0.02 | 993.73 | 0.6935
310.15 K, m1 = 0.025 | 993.741 | 0.6938
313.15 K, m1 = 0.0076 | 992.443 | 0.6556
313.15 K, m1 = 0.01 | 992.499 | 0.6557
313.15 K, m1 = 0.0125 | 992.539 | 0.6558
313.15 K, m1 = 0.0152 | 992.571 | 0.656
313.15 K, m1 = 0.0175 | 992.592 | 0.6562
313.15 K, m1 = 0.02 | 992.601 | 0.6564
313.15 K, m1 = 0.025 | 992.609 | 0.6568

CC(CN(C)C)CN1c2ccccc2CCc2ccccc21.O=C(O)/C=C\C(=O)O (stereo not drawn) [trimipramine maleate] + O
Settings | mass density [kg/m3] | viscosity [mPa·s]
293.15 K, m1 = 0.0075 | 998.499 | 1.035
293.15 K, m1 = 0.01 | 998.566 | 1.035
293.15 K, m1 = 0.0125 | 998.625 | 1.036
293.15 K, m1 = 0.0152 | 998.675 | 1.036
293.15 K, m1 = 0.0175 | 998.715 | 1.037
293.15 K, m1 = 0.02 | 998.745 | 1.038
293.15 K, m1 = 0.025 | 998.799 | 1.04
298.15 K, m1 = 0.0076 | 997.329 | 0.937
298.15 K, m1 = 0.01 | 997.396 | 0.9373
298.15 K, m1 = 0.0125 | 997.455 | 0.9376
298.15 K, m1 = 0.0152 | 997.499 | 0.9379
298.15 K, m1 = 0.0175 | 997.535 | 0.9382
298.15 K, m1 = 0.02 | 997.569 | 0.9385
298.15 K, m1 = 0.025 | 997.601 | 0.9393
303.15 K, m1 = 0.0076 | 995.919 | 0.8339
303.15 K, m1 = 0.01 | 995.981 | 0.8342
303.15 K, m1 = 0.0125 | 996.031 | 0.8345
303.15 K, m1 = 0.0152 | 996.081 | 0.8348
303.15 K, m1 = 0.0175 | 996.105 | 0.835
303.15 K, m1 = 0.02 | 996.141 | 0.8354
303.15 K, m1 = 0.025 | 996.175 | 0.8361
308.15 K, m1 = 0.0076 | 994.296 | 0.7339
308.15 K, m1 = 0.01 | 994.355 | 0.7341
308.15 K, m1 = 0.0125 | 994.401 | 0.7343
308.15 K, m1 = 0.0152 | 994.455 | 0.7346
308.15 K, m1 = 0.0175 | 994.475 | 0.7348
308.15 K, m1 = 0.02 | 994.515 | 0.7351
308.15 K, m1 = 0.025 | 994.535 | 0.7355
310.15 K, m1 = 0.0076 | 993.58 | 0.6928
310.15 K, m1 = 0.01 | 993.638 | 0.693
310.15 K, m1 = 0.0125 | 993.681 | 0.6932
310.15 K, m1 = 0.0152 | 993.721 | 0.6934
310.15 K, m1 = 0.0175 | 993.749 | 0.6937
310.15 K, m1 = 0.02 | 993.769 | 0.6939
310.15 K, m1 = 0.025 | 993.799 | 0.6943
313.15 K, m1 = 0.0076 | 992.458 | 0.6561
313.15 K, m1 = 0.01 | 992.506 | 0.6564
313.15 K, m1 = 0.0125 | 992.551 | 0.6566
313.15 K, m1 = 0.0152 | 992.589 | 0.6568
313.15 K, m1 = 0.0175 | 992.609 | 0.6571
313.15 K, m1 = 0.02 | 992.615 | 0.6573
313.15 K, m1 = 0.025 | 992.635 | 0.6579
